Peptide text beside a SMILES is read from it.
Tests used:
CCN2-EGFR (Homo sapiens) [1] = biological target: T1, CCN2-EGFR (Homo sapiens) (UniProt P00533+P29279); test: Inhibition of His-tagged full length human CCN2 FL domain/human Fc-tagged EGFR protein-protein interaction using TMB as chromogenic substrate at 100 uM incubated for 140 mins by microplate reader assay relative to control
CCN2-EGFR (Homo sapiens) [2] = biological target: T1, CCN2-EGFR (Homo sapiens); test: Inhibition of His-tagged full length human CCN2 CT domain/human Fc-tagged EGFR protein-protein interaction using TMB as chromogenic substrate at 100 uM incubated for 140 mins by microplate reader assay relative to control

T1 sequence (P00533 whole entry, looked up, the tested form may be a part): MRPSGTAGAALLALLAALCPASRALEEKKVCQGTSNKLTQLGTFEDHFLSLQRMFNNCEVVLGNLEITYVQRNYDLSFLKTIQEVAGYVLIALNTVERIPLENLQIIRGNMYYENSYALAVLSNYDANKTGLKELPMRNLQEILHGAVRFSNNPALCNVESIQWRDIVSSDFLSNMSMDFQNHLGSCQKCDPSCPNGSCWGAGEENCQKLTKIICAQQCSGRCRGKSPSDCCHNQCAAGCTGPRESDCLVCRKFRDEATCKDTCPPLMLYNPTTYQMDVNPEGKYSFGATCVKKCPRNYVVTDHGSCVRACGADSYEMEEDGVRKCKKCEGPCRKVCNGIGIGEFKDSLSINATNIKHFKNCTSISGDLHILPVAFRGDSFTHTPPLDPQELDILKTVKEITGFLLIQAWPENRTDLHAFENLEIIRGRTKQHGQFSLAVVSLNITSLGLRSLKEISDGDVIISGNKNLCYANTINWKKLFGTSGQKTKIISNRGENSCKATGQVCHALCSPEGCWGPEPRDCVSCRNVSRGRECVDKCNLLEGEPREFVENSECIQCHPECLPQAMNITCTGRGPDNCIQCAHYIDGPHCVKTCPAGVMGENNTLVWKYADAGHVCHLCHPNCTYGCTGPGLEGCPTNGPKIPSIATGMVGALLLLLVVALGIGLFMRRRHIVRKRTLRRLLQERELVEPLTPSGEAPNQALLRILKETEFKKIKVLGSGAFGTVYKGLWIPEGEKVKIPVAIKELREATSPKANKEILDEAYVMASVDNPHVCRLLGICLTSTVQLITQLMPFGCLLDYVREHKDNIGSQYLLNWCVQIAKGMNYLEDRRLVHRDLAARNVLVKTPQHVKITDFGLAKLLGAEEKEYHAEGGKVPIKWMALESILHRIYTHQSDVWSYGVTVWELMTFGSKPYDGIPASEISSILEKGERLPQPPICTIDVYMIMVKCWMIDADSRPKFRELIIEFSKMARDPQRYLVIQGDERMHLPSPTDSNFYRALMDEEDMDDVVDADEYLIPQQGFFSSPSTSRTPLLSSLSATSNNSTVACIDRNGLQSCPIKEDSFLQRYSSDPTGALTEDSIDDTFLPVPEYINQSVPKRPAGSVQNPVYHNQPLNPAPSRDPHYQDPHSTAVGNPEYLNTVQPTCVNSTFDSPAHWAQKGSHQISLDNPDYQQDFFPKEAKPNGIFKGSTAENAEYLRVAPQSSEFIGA
T1 sequence (P29279 whole entry, looked up, the tested form may be a part): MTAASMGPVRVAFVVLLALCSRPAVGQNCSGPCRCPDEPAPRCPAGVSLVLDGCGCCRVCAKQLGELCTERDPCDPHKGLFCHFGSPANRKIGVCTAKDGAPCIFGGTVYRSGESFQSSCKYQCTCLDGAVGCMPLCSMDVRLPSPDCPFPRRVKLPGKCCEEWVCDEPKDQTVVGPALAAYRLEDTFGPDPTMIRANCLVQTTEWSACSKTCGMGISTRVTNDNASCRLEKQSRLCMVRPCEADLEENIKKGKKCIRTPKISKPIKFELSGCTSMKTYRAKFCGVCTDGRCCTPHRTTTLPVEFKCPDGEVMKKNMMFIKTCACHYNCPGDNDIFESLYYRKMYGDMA

SMILES | inhibition (CCN2-EGFR (Homo sapiens) [1]) [%] | inhibition (CCN2-EGFR (Homo sapiens) [2]) [%]
CC(C)C[C@H](NC(=O)[C@H](C)N)C(=O)N[C@@H](C)C(=O)N[C@@H](CC(=O)O)C(=O)N[C@H](C(=O)N[C@H](C(=O)N[C@@H](Cc1c[nH]cn1)C(=O)N[C@@H](Cc1c[nH]cn1)C(=O)N[C@@H](CCCNC(=N)N)C(=O)N1CCC[C@H]1C(=O)N[C@@H](Cc1c[nH]c2ccccc12)C(=O)N[C@H](C(N)=O)[C@@H](C)O)[C@@H](C)O)[C@@H](C)O (H-ALADTTHHRPWT-NH2) | 58.7 | 70.8
CC(C)C[C@H](N)C(=O)N[C@@H](C)C(=O)N[C@@H](C)C(=O)N[C@@H](CC(=O)O)C(=O)N[C@H](C(=O)N[C@H](C(=O)N[C@@H](Cc1c[nH]cn1)C(=O)N[C@@H](Cc1c[nH]cn1)C(=O)N[C@@H](CCCNC(=N)N)C(=O)N1CCC[C@H]1C(=O)N[C@@H](Cc1c[nH]c2ccccc12)C(=O)N[C@H](C(N)=O)[C@@H](C)O)[C@@H](C)O)[C@@H](C)O (H-LAADTTHHRPWT-NH2) | 62.8 | 69.5
CC(C)C[C@H](NC(=O)[C@@H](N)CC(C)C)C(=O)N[C@@H](C)C(=O)N[C@@H](C)C(=O)N[C@H](C(=O)N[C@H](C(=O)N[C@@H](Cc1c[nH]cn1)C(=O)N[C@@H](Cc1c[nH]cn1)C(=O)N[C@@H](CCCNC(=N)N)C(=O)N1CCC[C@H]1C(=O)N[C@@H](Cc1c[nH]c2ccccc12)C(=O)N[C@H](C(N)=O)[C@@H](C)O)[C@@H](C)O)[C@@H](C)O (H-LLAATTHHRPWT-NH2) | 61.4 | 76
CC(C)C[C@H](NC(=O)[C@@H](N)CC(C)C)C(=O)N[C@@H](C)C(=O)N[C@@H](CC(=O)O)C(=O)N[C@@H](C)C(=O)N[C@H](C(=O)N[C@@H](Cc1c[nH]cn1)C(=O)N[C@@H](Cc1c[nH]cn1)C(=O)N[C@@H](CCCNC(=N)N)C(=O)N1CCC[C@H]1C(=O)N[C@@H](Cc1c[nH]c2ccccc12)C(=O)N[C@H](C(N)=O)[C@@H](C)O)[C@@H](C)O (H-LLADATHHRPWT-NH2) | 59 | 70.7
CC(C)C[C@H](NC(=O)[C@@H](N)CC(C)C)C(=O)N[C@@H](C)C(=O)N[C@@H](CC(=O)O)C(=O)N[C@H](C(=O)N[C@@H](C)C(=O)N[C@@H](Cc1c[nH]cn1)C(=O)N[C@@H](Cc1c[nH]cn1)C(=O)N[C@@H](CCCNC(=N)N)C(=O)N1CCC[C@H]1C(=O)N[C@@H](Cc1c[nH]c2ccccc12)C(=O)N[C@H](C(N)=O)[C@@H](C)O)[C@@H](C)O (H-LLADTAHHRPWT-NH2) | 36.5 | 44.1
CC(C)C[C@H](NC(=O)[C@@H](N)CC(C)C)C(=O)N[C@@H](C)C(=O)N[C@@H](CC(=O)O)C(=O)N[C@H](C(=O)N[C@H](C(=O)N[C@@H](C)C(=O)N[C@@H](Cc1c[nH]cn1)C(=O)N[C@@H](CCCNC(=N)N)C(=O)N1CCC[C@H]1C(=O)N[C@@H](Cc1c[nH]c2ccccc12)C(=O)N[C@H](C(N)=O)[C@@H](C)O)[C@@H](C)O)[C@@H](C)O (H-LLADTTAHRPWT-NH2) | 59.6 | 70.5
CC(C)C[C@H](NC(=O)[C@@H](N)CC(C)C)C(=O)N[C@@H](C)C(=O)N[C@@H](CC(=O)O)C(=O)N[C@H](C(=O)N[C@H](C(=O)N[C@@H](Cc1c[nH]cn1)C(=O)N[C@@H](Cc1c[nH]cn1)C(=O)N[C@@H](C)C(=O)N1CCC[C@H]1C(=O)N[C@@H](Cc1c[nH]c2ccccc12)C(=O)N[C@H](C(N)=O)[C@@H](C)O)[C@@H](C)O)[C@@H](C)O (H-LLADTTHHAPWT-NH2) | 57.8 | 72.5
CC(C)C[C@H](NC(=O)[C@@H](N)CC(C)C)C(=O)N[C@@H](C)C(=O)N[C@@H](CC(=O)O)C(=O)N[C@H](C(=O)N[C@H](C(=O)N[C@@H](Cc1c[nH]cn1)C(=O)N[C@@H](Cc1c[nH]cn1)C(=O)N[C@@H](CCCNC(=N)N)C(=O)N[C@@H](C)C(=O)N[C@@H](Cc1c[nH]c2ccccc12)C(=O)N[C@H](C(N)=O)[C@@H](C)O)[C@@H](C)O)[C@@H](C)O (H-LLADTTHHRAWT-NH2) | 56.5 | 65.6
CC(C)C[C@H](NC(=O)[C@@H](N)CC(C)C)C(=O)N[C@@H](C)C(=O)N[C@@H](CC(=O)O)C(=O)N[C@H](C(=O)N[C@H](C(=O)N[C@@H](Cc1c[nH]cn1)C(=O)N[C@@H](Cc1c[nH]cn1)C(=O)N[C@@H](CCCNC(=N)N)C(=O)N1CCC[C@H]1C(=O)N[C@@H](C)C(=O)N[C@H](C(N)=O)[C@@H](C)O)[C@@H](C)O)[C@@H](C)O (H-LLADTTHHRPAT-NH2) | 8.7 | 10.7
C[C@@H](O)[C@H](N)C(=O)N[C@@H](CCC(=O)O)C(=O)N[C@@H](Cc1c[nH]cn1)C(=O)N[C@@H](CCCNC(=N)N)C(=O)N1CCC[C@H]1C(=O)N[C@@H](Cc1c[nH]c2ccccc12)C(=O)N[C@H](C(N)=O)[C@@H](C)O (H-TEHRPWT-NH2) | 12.5 | 11.5
C[C@@H](O)[C@H](N)C(=O)N[C@@H](Cc1c[nH]cn1)C(=O)N[C@@H](Cc1c[nH]cn1)C(=O)N[C@@H](CCC(N)=O)C(=O)N1CCC[C@H]1C(=O)N[C@@H](Cc1c[nH]c2ccccc12)C(=O)N[C@H](C(N)=O)[C@@H](C)O (H-THHQPWT-NH2) | 2.1 | 8.1
C[C@@H](O)[C@H](N)C(=O)N[C@@H](Cc1c[nH]cn1)C(=O)N[C@@H](Cc1c[nH]cn1)C(=O)N[C@@H](CCCNC(=N)N)C(=O)N[C@@H](CCC(=O)O)C(=O)N[C@@H](Cc1c[nH]c2ccccc12)C(=O)N[C@H](C(N)=O)[C@@H](C)O (H-THHREWT-NH2) | 19.6 | 11.1

Results, then the molecule that gave them:

inhibition (CCN2-EGFR (Homo sapiens) [1]) [%] | inhibition (CCN2-EGFR (Homo sapiens) [2]) [%] | SMILES
48.6 | 65.8 | CC(C)C[C@H](NC(=O)[C@@H](N)CC(C)C)C(=O)N[C@@H](C)C(=O)N[C@@H](CC(=O)O)C(=O)N[C@H](C(=O)N[C@H](C(=O)N[C@@H](Cc1c[nH]cn1)C(=O)N[C@@H](C)C(=O)N[C@@H](CCCNC(=N)N)C(=O)N1CCC[C@H]1C(=O)N[C@@H](Cc1c[nH]c2ccccc12)C(=O)N[C@H](C(N)=O)[C@@H](C)O)[C@@H](C)O)[C@@H](C)O (H-LLADTTHARPWT-NH2)
13.5 | 14.2 | CC(C)C[C@H](NC(=O)[C@@H](N)CC(C)C)C(=O)N[C@@H](C)C(=O)N[C@@H](CC(=O)O)C(=O)N[C@H](C(=O)N[C@H](C(=O)N[C@@H](Cc1c[nH]cn1)C(=O)N[C@@H](Cc1c[nH]cn1)C(=O)N[C@@H](CCCNC(=N)N)C(=O)N1CCC[C@H]1C(=O)N[C@@H](Cc1c[nH]c2ccccc12)C(=O)N[C@@H](C)C(N)=O)[C@@H](C)O)[C@@H](C)O (H-LLADTTHHRPWA-NH2)
15.5 | 12.1 | C[C@@H](O)[C@H](N)C(=O)N[C@@H](Cc1c[nH]cn1)C(=O)N[C@@H](CCC(=O)O)C(=O)N[C@@H](CCCNC(=N)N)C(=O)N1CCC[C@H]1C(=O)N[C@@H](Cc1c[nH]c2ccccc12)C(=O)N[C@H](C(N)=O)[C@@H](C)O (H-THERPWT-NH2)
12.4 | 61.9 | C[C@@H](O)[C@H](N)C(=O)N[C@@H](Cc1c[nH]cn1)C(=O)N[C@@H](Cc1c[nH]cn1)C(=O)N[C@@H](CCC(=O)O)C(=O)N1CCC[C@H]1C(=O)N[C@@H](Cc1c[nH]c2ccccc12)C(=O)N[C@H](C(N)=O)[C@@H](C)O (H-THHEPWT-NH2)
37.1 | 43.6 | CC(C)C[C@H](NC(=O)[C@H](CCCNC(=N)N)NC(=O)[C@H](Cc1c[nH]cn1)NC(=O)[C@H](Cc1c[nH]cn1)NC(=O)[C@@H](N)[C@@H](C)O)C(=O)N[C@@H](Cc1c[nH]c2ccccc12)C(=O)N[C@H](C(N)=O)[C@@H](C)O (H-THHRLWT-NH2)

Source: ChEMBL document CHEMBL5338820, “Discovery and Design of Novel Cyclic Peptides as Specific Inhibitors Targeting CCN2 and Disrupting CCN2/EGFR Interaction for Kidney Fibrosis Treatment” (J Med Chem, 2023)
